Drawing on patent US20260365682A1, “MODULATORS OF TNF-ALPHA ACTIVITY” (Forward Therapeutics, Inc., priority 2022, published 2026), this text covers IC50 for 17 compounds.

Structures are written as SMILES. Some results are limits rather than exact numbers.

In the assay the target is T1, TNF-α (Homo sapiens, UniProt P01375).
T1 construct: purchased R&D 210-TA-020/CF
Description: TNF-α Induced HEK Blue Cellular Assay (secreted alkaline phosphatase expression, QUANTI-Blue). Format: cell-based. Conditions: HEK Blue TNFα reporter cells; TNF-α 100 μg/ml; 24 hrs at 37° C.; inhibition of secreted alkaline phosphatase; read-out: IC50 value. The procedure: TNF-α Induced HEK Blue Cellular Assay
Test articles were diluted in DMSO and serially diluted into 384 well assay plate (Corning 3765), at final concentrations ranging from […] to 0.5 nM. HEK Blue™ TNFα reporter cells were added at a final density of 10,000 cell per well in assay media [DMEM (Gibco, cat #21063-029), 10% fetal bovine serum (ExcelBio, cat #FND500), 1% Penicillin-Streptomycin (Solarbio, cat #P1400-100]. TNF-α (R&D 210-TA-020/CF) was then added to the assay plate at a final concentration of […]. This plate was then incubated for 24 hrs at 37° C. and 5% CO2. Secreted alkaline phosphatase expression was then measured using QUANTI-Blue™ (Invivogen), according to manufacturer instructions and read on an Envision microplate reader at 620 nm.
Inhibition data for test compound over a range of concentration was plotted as percentage inhibition of the test compound (100%=maximum inhibition). IC50 values were determined after correcting for background [(sample read-mean of low control)/(mean of high control-mean of low control)] whereby the low control is DMSO without stimulation and high control is DMSO with stimulation. The IC50 is defined as the concentration of test compound which produces 50% inhibition and was quantified using the 4 parameter logistic equation to fit the data.

T1 sequence (P01375 77-233 limits assumed): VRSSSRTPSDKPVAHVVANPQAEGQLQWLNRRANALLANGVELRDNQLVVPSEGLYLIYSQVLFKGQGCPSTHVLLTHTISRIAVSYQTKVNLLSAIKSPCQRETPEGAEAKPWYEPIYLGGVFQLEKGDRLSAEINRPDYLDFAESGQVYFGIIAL

As to `CC1C(C#Cc2ccc3nc4n(c3c2)[C@@H]2C[C@H]4N(C)C(=O)c3cccc(OC(F)F)c32)CN1C1COC1` (single isomer, unassigned) [Example 257, (7R,14R)-1-(difluoromethoxy)-6-(methyl-d3)-11-(((2S or 2R)-2-methyl-1-(oxetan-3-yl)azetidin-3-yl)ethynyl)-6,7-dihydro-7,14-methanobenzo[f]benzo[4,5]imidazo[1,2-a][1,4]diazocin-5(14H)-one], the IC50 was under 100 nM.
Under `[2H]C([2H])([2H])N1C(=O)c2cccc(OC(F)F)c2[C@H]2C[C@@H]1c1nc3ccc(C#CC4CN(C5COC5)C4C)cc3n12` (single isomer, unassigned) [Example 258, (7R,14R)-1-(difluoromethoxy)-6-(methyl-d3)-11-(((2R or 2S)-2-methyl-1-(oxetan-3-yl)azetidin-3-yl)ethynyl)-6,7-dihydro-7,14-methanobenzo[f]benzo[4,5]imidazo[1,2-a][1,4]diazocin-5(14H)-one] stands under 100 nM.
As for `CN1C(=O)c2cccc(OC(F)F)c2[C@H]2C[C@@H]1c1nc3ccc(C#Cc4cnn(C)c4)cc3n12` [Example 1, (1R,11R)-18-(difluoromethoxy)-12-methyl-5-[2-(1-methylpyrazol-4-yl)ethynyl]-2,9,12-triazapentacyclo[9.8.1.0^∧{2,10}.0^∧{3,8}. 0^∧{14,19}]icosa-3(8),4,6,9,14(19),15,17-heptaen-13-one], the IC50 was under 100 nM.
On to `Cn1cc(C#Cc2ccc3nc4n(c3c2)[C@@H]2C[C@H]4NC(=O)c3cccc(OC(F)F)c32)cn1` [Example 2, (1R,11R)-18-(difluoromethoxy)-5-[2-(1-methylpyrazol-4-yl)ethynyl]-2,9,12-triazapentacyclo[9.8.1.0^∧{2,10}.0^∧{3,8}. 0^∧{14,19}]icosa-3(8),4,6,9,14(19),15,17-heptaen-13-one], for which the IC50 was under 100 nM.
As for `O=C1N[C@@H]2C[C@H](c3c(OC(F)F)cccc31)n1c2nc2ccc(C#Cc3cncnc3)cc21` [Example 3, (1R,11R)-18-(difluoromethoxy)-5-[2-(pyrimidin-5-yl)ethynyl]-2,9,12-triazapentacyclo[9.8.1.0^∧{2,10}.0^∧{3,8}. 0^∧{14,19}]icosa-3(8),4,6,9,14(19),15,17-heptaen-13-one], the figure is under 100 nM.
As for `CN1C(=O)c2cccc(OC(F)F)c2[C@H]2C[C@@H]1c1nc3ccc(C#Cc4cncnc4)cc3n12` [Example 4, (1R,11R)-18-(difluoromethoxy)-12-methyl-5-[2-(pyrimidin-5-yl)ethynyl]-2,9,12-triazapentacyclo[9.8.1.0^{2,10}.0^{3,8}.0^{14,19}]icosa-3(8),4,6,9,14(19),15,17-heptaen-13-one], the figure is under 100 nM; as for `CN1C(=O)c2cccc(OC(F)F)c2[C@H]2C[C@@H]1c1nc3ccc(C#Cc4cnn(CCO)c4)cc3n12` [Example 5, (1R,11R)-18-(difluoromethoxy)-5-{2-[1-(2-hydroxyethyl)pyrazol-4-yl]ethynyl}-12-methyl-2,9,12-triazapentacyclo[9.8.1.0^{2,10}.0^{3,8}.0^{14,19}]icosa-3(8),4,6,9,14(19),15,17-heptaen-13-one], under 100 nM.
Under `O=C1N[C@@H]2C[C@H](c3c(OC(F)F)cccc31)n1c2nc2ccc(C#Cc3cnn(CCO)c3)cc21` [Example 6, (1R,11R)-18-(difluoromethoxy)-5-{2-[1-(2-hydroxyethyl)pyrazol-4-yl]ethynyl}-2,9,12-triazapentacyclo[9.8.1.0^{2,10}.0^{3,8}.0^{14,19}]icosa-3(8),4,6,9,14(19),15,17-heptaen-13-one] stands under 100 nM.
Turning to `CCN1C(=O)c2cccc(OC(F)F)c2[C@H]2C[C@@H]1c1nc3ccc(C#Cc4cnn(C)c4)cc3n12` [Example 7, (1R,11R)-18-(difluoromethoxy)-12-ethyl-5-[2-(1-methylpyrazol-4-yl)ethynyl]-2,9,12-triazapentacyclo[9.8.1.0^{2,10}.0^{3,8}.0^{14,19}]icosa-3(8),4,6,9,14(19),15,17-heptaen-13-one], the concentration for half-maximal inhibition (IC50) was under 100 nM.
Under `[2H]C([2H])([2H])N1C(=O)c2cccc(OC(F)F)c2[C@H]2C[C@@H]1c1nc3ccc(C#Cc4cnn(C)c4)cc3n12` [Example 8, (7R,14R)-1-(difluoromethoxy)-6-(methyl-d3)-11-((1-methyl-1H-pyrazol-4-yl)ethynyl)-6,7-dihydro-7,14-methanobenzo[f]benzo[4,5]imidazo[1,2-a][1,4]diazocin-5(14H)-one] stands under 100 nM; under `CN1C(=O)c2cccc(OC(F)F)c2[C@H]2C[C@@H]1c1nc3ccc(C#Cc4cncn4C)cc3n12` [Example 9, (1R,11R)-18-(difluoromethoxy)-12-methyl-5-[2-(3-methylimidazol-4-yl)ethynyl]-2,9,12-triazapentacyclo[9.8.1.0^{2,10}.0^{3,8}.0^{14,19}]icosa-3(8),4,6,9,14(19),15,17-heptaen-13-one], under 100 nM.
As for `[2H]C([2H])([2H])N1C(=O)c2cccc(OC(F)F)c2[C@H]2C[C@@H]1c1nc3ccc(C#Cc4cnn(CCO)c4)cc3n12` [Example 10, (7R,14R)-1-(difluoromethoxy)-11-((1-(2-hydroxyethyl)-1H-pyrazol-4-yl)ethynyl)-6-(methyl-d3)-6,7-dihydro-7,14-methanobenzo[f]benzo[4,5]imidazo[1,2-a][1,4]diazocin-5(14H)-one], the figure is under 100 nM; as for `[2H]C([2H])([2H])N1C(=O)c2cccc(OC(F)F)c2[C@H]2C[C@@H]1c1nc3ccc(C#Cc4cncnc4)cc3n12` [Example 11, (7R,14R)-1-(difluoromethoxy)-6-(methyl-d3)-11-(pyrimidin-5-ylethynyl)-6,7-dihydro-7,14-methanobenzo[f]benzo[4,5]imidazo[1,2-a][1,4]diazocin-5(14H)-one], under 100 nM.
Under `[2H]C([2H])([2H])N1C(=O)c2cccc(OC(F)F)c2[C@H]2C[C@@H]1c1nc3ccc(C#Cc4cnnn4C)cc3n12` [Example 12, (7R,14R)-1-(difluoromethoxy)-6-(methyl-d3)-11-((1-methyl-1H-1,2,3-triazol-5-yl)ethynyl)-6,7-dihydro-7,14-methanobenzo[f]benzo[4,5]imidazo[1,2-a][1,4]diazocin-5(14H)-one] stands 1000 to 10000 nM; under `[2H]C([2H])([2H])N1C(=O)c2cccc(OC(F)F)c2[C@H]2C[C@@H]1c1nc3ccc(C#Cc4ccnn4C)cc3n12` [Example 13, (7R,14R)-1-(difluoromethoxy)-6-(methyl-d3)-11-((1-methyl-1H-pyrazol-5-yl)ethynyl)-6,7-dihydro-7,14-methanobenzo[f]benzo[4,5]imidazo[1,2-a][1,4]diazocin-5(14H)-one], under 100 nM; under `[2H]C([2H])([2H])N1C(=O)c2cccc(OC(F)F)c2[C@H]2C[C@@H]1c1nc3ccc(C#Cc4cn[nH]c4)cc3n12` [Example 14, (7R,14R)-11-((1H-pyrazol-4-yl)ethynyl)-1-(difluoromethoxy)-6-(methyl-d3)-6,7-dihydro-7,14-methanobenzo[f]benzo[4,5]imidazo[1,2-a][1,4]diazocin-5(14H)-one], under 100 nM.
Regarding `[2H]C([2H])([2H])N1C(=O)c2cccc(OC(F)F)c2[C@H]2C[C@@H]1c1nc3ccc(C#Cc4cnn(CCN)c4)cc3n12` [Example 15, (7R,14R)-11-((1-(2-aminoethyl)-1H-pyrazol-4-yl)ethynyl)-1-(difluoromethoxy)-6-(methyl-d3)-6,7-dihydro-7,14-methanobenzo[f]benzo[4,5]imidazo[1,2-a][1,4]diazocin-5(14H)-one], the half-inhibitory concentration (IC50) was under 100 nM.
